Test results published in patent publication US20260272936A1, “TREATMENT OF CANCER WITH A PARG INHIBITOR” (858 Therapeutics, Inc., priority 2023, published 2026).
pIC50: −log10 of the molar value.

What was measured:
Experiment in all cases: 6-day cell proliferation, nuclei count
Assay type in all cases: cell-based
Kuramochi cells = conditions: Homo sapiens, 144 h
Text: (§1) The FU-97 (Cat #JCRB1074) human gastric cancer cell line and the Kuramochi (Cat #JCRB0098) and RMUG-S(Cat #IFO50320) human ovarian cancer cell lines were obtained from the National Institutes of Biomedical Innovation, Health and Nutrition's Japanese Collection of Research Bioresources (JCRB) (Ibaraki City, Osaka, Japan). The HCC1419 (Cat #CRL-2326) and HCC1428 (Cat #CRL-2327) human breast cancer cell lines and the NCI-H1650 (Cat #CRL-5883) and NCI-H1792 (Cat #CRL-5895) non-small cell lung cancer cell lines were obtained from ATCC (Manassas, Virginia, USA). The human gastric cancer cell lines GCIY (Cat #RCB0555) and SNU601 (Cat #CSC-C9686L) were obtained from the Riken Bioresource Research Center (Tsukuba, Ibaraki, Japan) and Creative Bioarray (Shirley, NY, USA), respectively. The T025OV ovarian cancer organoid model was developed from a patient-derived xenograft (PDX) model, which was developed from primary serous ovarian carcinoma cells obtained from Discovery Life Sciences (Huntsville, AL, USA, SN #350627149). T026OV organoids were developed from PDX cells obtained from The Jackson Laboratory (Bar Harbor, ME, USA, Cat #TM00335).
(§2) All cell lines were grown in an incubator at 37° C. in 5% CO2. The Kuramochi and SNU-601 cells were cultured in RPMI+glutaMAX™ (Thermo Fisher Scientific, Waltham, MA, USA Cat #74200120) containing 1% penicillin/streptomycin (pen/strep) (Thermo Fisher Scientific Cat #15070-063), and 10% fetal bovine serum (FBS) (Thermo Fisher Scientific Cat #A31605-02). The HCC1419, HCC1428, NCI-H1650, and NCI-H1792 cells were cultured in ATCC-modified RPMI+glutaMAX™ (Thermo Fisher Scientific Cat #A10491-01) containing 1% pen/strep and 10% FBS. The FU-97 cells were cultured in DMEM+glutaMAX™ (Thermo Fisher Scientific, Waltham, MA, USA Cat #10566-016) containing 1% pen/strep, 10% FBS and 0.01 mg/mL bovine insulin (MilliporeSigma, Burlington, MA, USA Cat #10516-5ML). The GCIY cells were cultured in MEM (Thermo Fisher Scientific Cat #11095-080) containing 1% pen/strep and 15% FBS. The RMUG-S cells were cultured in Ham's F12 medium+glutaMAX™ (Thermo Fisher Scientific Cat #31765-035) containing 10% FBS and 1% pen/strep.
(§3) Compound 1 IC50 values for inhibition of cell proliferation were determined by imaging and counting the number of nuclei after compound treatment. Cells were harvested with trypsin (Thermo Fisher Scientific, Cat #25200-056) and plated in black-walled, clear bottom 96-well Corning costar 3603 plates (VWR, Radnor, PA, USA Cat #29444-008) at 7500 cells/well (HCC1428 and HCC1419), 5000 cells/well (Kuramochi, FU-97, SNU-601), 2500 cells/well (RMUG-S, GCIY, NCI-H1650) or 1000 cells/well (NCI-H1792) in 100 μL normal growth media and incubated overnight at 37° C., 5% CO2. The following day, a 1000× Compound 1 concentration curve was prepared by serial dilution of Compound 1 in 100% DMSO. The 1000× Compound 1 concentration curve was diluted 1:200 into growth media to generate a 5× concentration curve in 0.5% DMSO/growth medium before addition of 25 μL of the 5× compound to the wells. Control wells received 25 μL of 0.5% DMSO/media alone (negative control wells) or 50 μM Compound 1 (positive controls; 10 μM Compound 1 final). The plate was mixed gently on a plate shaker, covered with Breathe-Easy biofilm (Diversified Biotech, Cat #BEM-1), and incubated at 37° C., 5% CO2 for 6 days. Following the incubation period, a 125 μL fixation/permeabilization solution containing 8% paraformaldehyde (Fisher Scientific, Cat #50-980-495, part of Thermo Fisher Scientific) and 0.2% Triton X-100 (Thermo Fisher Scientific, Cat #327372500) in PBS was added to each well of the plate, and the plates were incubated at room temperature for 20 min. The solution was aspirated and cells washed by the addition of 100 μL PBS. After aspiration of the PBS, nuclei were stained by the addition of 100 μL 1 μg/mL DAPI (Thermo Fisher Cat #62248) in PBS. […]

FU-97 cells = conditions: Homo sapiens, Fu97, 144 h
Text: as §1, §2, §3

RMUG-S cells = conditions: Homo sapiens, 144 h
Text: as §1, §2, §3

NCI-H1650 cells = conditions: Homo sapiens
Text: as §1, §2, §3

SNU-601 cells = conditions: Homo sapiens
Text: as §1, §2, §3

HCC1428 cells = conditions: Homo sapiens
Text: as §1, §2, §3

HCC1419 cells = conditions: Homo sapiens
Text: as §1, §2, §3

GCIY cells = conditions: Homo sapiens, 144 h
Text: as §1, §2, §3

NCI-H1792 cells = conditions: Homo sapiens
Text: as §1, §2, §3

[1] = read-out: IC50 inhibition of proliferation

[2H]C([2H])(c1cnn(C)c1)N1C(=O)c2cc(S(=O)(=O)NC3(C)CC3)ccc2N2C1=NC[C@H]2C [Compound 1, (R)-1-methyl-4-((1-methyl-1H-pyrazol-4-yl)methyl-d2)-N-(1-methylcyclopropyl)-5-oxo-1,2,4,5-tetrahydroimidazo[1,2-a]quinazoline-7-sulfonamide]
pIC50 (Kuramochi cells; [1]): 7.34 | IC90 (Kuramochi cells; Kuramochi, 6 days, geometric mean, read-out: IC90 inhibition of proliferation): 0.133 µM | pIC50 (FU-97 cells; [1]): 6.75 | IC90 (FU-97 cells; FU-97, 6 days, geometric mean, read-out: IC90 inhibition of proliferation): 0.833 µM | pIC50 (RMUG-S cells; [1]): 7.12 | IC90 (RMUG-S cells; RMUG-S, 6 days, geometric mean, read-out: IC90 inhibition of proliferation): 0.208 µM | IC90 (NCI-H1650 cells; 144 h, NCI-H1650, 6 days, geometric mean, read-out: IC90 inhibition of proliferation): 0.32 µM | pIC50 (NCI-H1650 cells; NCI-H1650, 144 h, read-out: IC50 inhibition of proliferation): 7.00 | IC90 (SNU-601 cells; 144 h, SNU-601, 6 days, geometric mean, read-out: IC90 inhibition of proliferation): 0.539 µM | pIC50 (SNU-601 cells; SNU-601, 144 h, read-out: IC50 inhibition of proliferation): 6.83 | IC90 (HCC1428 cells; 144 h, HCC1428, 6 days, geometric mean, read-out: IC90 inhibition of proliferation): 0.363 µM | pIC50 (HCC1428 cells; HCC1428, 144 h, read-out: IC50 inhibition of proliferation): 6.88 | IC90 (HCC1419 cells; 144 h, HCC1419, 6 days, geometric mean, read-out: IC90 inhibition of proliferation): 0.206 µM | pIC50 (HCC1419 cells; HCC1419, 144 h, read-out: IC50 inhibition of proliferation): 7.30 | IC90 (GCIY cells; 6 days, geometric mean, read-out: IC90 inhibition of proliferation): 0.125 µM | pIC50 (GCIY cells; [1]): 7.55 | IC90 (NCI-H1792 cells; 144 h, NCI-H1792, 6 days, geometric mean, read-out: IC90 inhibition of proliferation): 4.28 µM | pIC50 (NCI-H1792 cells; NCI-H1792, 144 h, read-out: IC50 inhibition of proliferation): 5.94
